From publication PMC6271529, “Studies on the Anticonvulsant Activity and Influence on GABA-ergic Neurotransmission of 1,2,4-Triazole-3-thione-Based Compounds” (Molecules, 2014)
Where two headings read alike, the source gives them in different places.

Assays:
[1] = tested on: maximal electroshock-induced seizures; test: Maximal electroshock-induced seizure (MES) test in mice; assay type: in vivo, mouse; conditions: for responders at 300 mg/kg / ED50: Mus musculus, ip; for responders at 300 mg/kg: read-out: percent of animals protected against MES-induced seizures; for PI (TD50/ED50): protective index
Description: Additionally, all efforts were made to minimize animal suffering and to use only the number of animals necessary to produce reliable scientific data.
In the initial stage of the study, groups of eight mice were supplied with the compounds (administered intraperitoneally) in a dose of 300 mg/kg and then exposed to electrical impulse at fixed intervals (15, 30, 60, 120 min).
Each mouse was used only once.
Fresh drug solutions were prepared on each day of experimentation and administered at 15, 30, 60 and 120 min. before the initiation of maximal electroconvulsions. Electroconvulsions were produced by a current (0.2 s stimulus duration; 500 V, 50 Hz, fixed current intensity of 25 mA) delivered via ear-clip electrodes by a Rodent Shocker generator (constant-current stimulator Type 221, Hugo Sachs Elektronik, Freiburg, Germany). The criterion for the occurrence of seizure activity was the tonic hind limb extension. The animals were administered with a constant dose of 300 mg/kg of each of the examined compounds and were subjected to MES-induced seizures. […] The animals were administered with different doses of the tested compounds so as to obtain a variable percentage of protection against maximal electroconvulsions, allowing the construction of dose-response relationship lines for each examined compound administered i.p. at various pretreatment times, according to Litchfield and Wilcoxon. Each ED50 value represents the dose of the studied compounds that is required to protect 50% of the animals tested against MES-induced seizures.

GABAA receptors = test: Radioligand binding assay, [3H]muscimol, rat cerebral cortex; conditions: compound 1 × 10^−6 M, [3H]muscimol, rat cerebral cortex;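 further: low percentages indicate weak binding of the compound to the receptor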
Description: Binding experiments were conducted in 96-well microplates in a total volume of 200 μL of appropriate buffer. The reaction mixture included 50 μL solution of test compound, 50 μL of radioligand, and […] the tissue suspension. Rat cerebral cortex was used for each receptor. […] Radioligand binding data were analyzed using iterative curve fitting routines (GraphPAD/Prism, Version 3.0, San Diego, CA, USA). Ki values were calculated from the Cheng and Prusoff equation [36].

[2] = 300 mg/kg i.p., pretreatment time 15 min, mice
[3] = 300 mg/kg i.p., pretreatment time 30 min, mice
[4] = 300 mg/kg i.p., pretreatment time 60 min, mice
[5] = 300 mg/kg i.p., pretreatment time 120 min, mice
[6] = 0.25 h, 300 mg/kg i.p., pretreatment time 15 min, mice
[7] = 0.5 h, 300 mg/kg i.p., pretreatment time 30 min, mice
[8] = 1 h, 300 mg/kg i.p., pretreatment time 60 min, mice
[9] = 2 h, 300 mg/kg i.p., pretreatment time 120 min, mice

Compound | p/t, number of animals protected against MES-induced seizures / number tested [1, 2] | p/t, number of animals protected against MES-induced seizures / number tested [1, 3] | p/t, number of animals protected against MES-induced seizures / number tested [1, 4] | p/t, number of animals protected against MES-induced seizures / number tested [1, 5] | responders at 300 mg/kg [1, 6] | responders at 300 mg/kg [1, 7] | responders at 300 mg/kg [1, 8] | responders at 300 mg/kg [1, 9] | melting point | further results
CC(=O)c1ccc(-n2c(-c3cccc(Cl)c3)n[nH]c2=S)cc1 [Compound 11a, 4-(4-Acetylphenyl)-5-(3-chlorophenyl)-2,4-dihydro-3H-1,2,4-triazole-3-thione] | 1/8 | 1/8 | 1/8 | 0/8 | 12.5% | 12.5% | 12.5% | 0% | 218 to 220 °C | 
Fc1ccc(-n2c(-c3ccc(Cl)cc3)n[nH]c2=S)c(F)c1 [Compound 13a, 5-(4-Chlorophenyl)-4-(2,4-difluorophenyl)-2,4-dihydro-3H-1,2,4-triazole-3-thione] | 8/8 | 8/8 | 8/8 | 8/8 | 100% | 100% | 100% | 100% | 196 to 198 °C | ED50 ([1]; pretreatment time 15 min, mice, read-out: ED50 ± S.E. (MES test)): 104 ± 15.8 mg/kg; ED50 ([1]; pretreatment time 30 min, mice, read-out: ED50 ± S.E. (MES test)): 100 ± 30.1 mg/kg; ED50 ([1]; pretreatment time 60 min, mice, read-out: ED50 ± S.E. (MES test)): 109 ± 11.9 mg/kg; ED50 ([1]; pretreatment time 120 min, mice, read-out: ED50 ± S.E. (MES test)): 80 ± 10.9 mg/kg; ED50 ([1]; pretreatment times 15, 30, 60, 120 min, read-out: ED50 (MES), range over pretreatment times): 80 to 109 mg/kg; time to peak of the anticonvulsant action ([1]; after i.p. administration, MES, mice): 120 min; PI (TD50/ED50) ([1]; chimney TD50 / MES ED50, pretreatment time 15 min): 1.9; PI (TD50/ED50) ([1]; chimney TD50 / MES ED50, pretreatment time 30 min): 1.9; PI (TD50/ED50) ([1]; chimney TD50 / MES ED50, pretreatment time 60 min): 1.6; PI (TD50/ED50) ([1]; chimney TD50 / MES ED50, pretreatment time 120 min): 2.7; onset of action ([1]; significant protection as early as 15 min after parenteral administration, MES, mice): quick onset of action
S=c1[nH]nc(-c2ccc(Cl)cc2)n1-c1ccc(Cl)cc1Cl [Compound 14a, 5-(4-Chlorophenyl)-4-(2,4-dichlorophenyl)-2,4-dihydro-3H-1,2,4-triazole-3-thione] |  |  |  |  |  |  |  |  | 238 to 240 °C | acute adverse effects at the screening dose ([1]; 300 mg/kg i.p., mice, protective effect in MES could not be established): acute adverse effects
CCN(CC)c1ccc(-n2c(-c3ccc(Cl)cc3)n[nH]c2=S)cc1 [Compound 18a, 5-(4-Chlorophenyl)-4-[4-(diethylamino)phenyl]-2,4-dihydro-3H-1,2,4-triazole-3-thione] | 0/8 | 0/8 | 1/8 | 0/8 | 0% | 0% | 12.5% | 0% | 264 to 266 °C | 
S=c1n(CN2CCOCC2)nc(-c2ccc(Cl)cc2)n1-c1ccccc1Br [Compound 25a, 4-(2-Bromophenyl)-5-(4-chlorophenyl)-2-(morpholin-4-ylmethyl)-2,4-dihydro-3H-1,2,4-triazole-3-thione] | 0/8 | 0/8 | 0/8 | 0/8 | 0% | 0% | 0% | 0% | 180 to 181 °C | 
S=c1n(CN2CCN(c3ccccc3)CC2)nc(-c2ccc(Cl)cc2)n1-c1ccccc1Br [Compound 26a, 4-(2-Bromophenyl)-5-(4-chlorophenyl)-2-[(4-phenylpiperazin-1-yl)methyl]-2,4-dihydro-3H-1,2,4-triazole-3-thione] | 0/8 | 0/8 | 0/8 | 0/8 | 0% | 0% | 0% | 0% | 140 to 142 °C | 
Fc1ccc(N2CCN(Cn3nc(-c4ccc(Cl)cc4)n(-c4ccccc4Br)c3=S)CC2)cc1 [Compound 27a, 4-(2-Bromophenyl)-5-(4-chlorophenyl)-2-{[4-(4-fluorophenyl)piperazin-1-yl]methyl}-2,4-dihydro-3H-1,2,4-triazole-3-thione] | 0/8 | 0/8 | 0/8 | 0/8 | 0% | 0% | 0% | 0% | 168 to 170 °C | 
S=c1n(CN2CCN(c3ccccc3)CC2)nc(-c2ccc(Cl)cc2)n1-c1ccc(Br)cc1 [Compound 29a, 4-(4-Bromophenyl)-5-(4-chlorophenyl)-2-[(4-phenylpiperazin-1-yl)methyl]-2,4-dihydro-3H-1,2,4-triazole-3-thione] | 0/8 | 0/8 | 0/8 | 0/8 | 0% | 0% | 0% | 0% | 178 to 180 °C | 
Fc1ccc(N2CCN(Cn3nc(-c4ccc(Cl)cc4)n(-c4ccc(Br)cc4)c3=S)CC2)cc1 [Compound 30a, 4-(4-Bromophenyl)-5-(4-chlorophenyl)-2-{[4-(4-fluorophenyl)piperazin-1-yl]methyl}-2,4-dihydro-3H-1,2,4-triazole-3-thione] | 0/8 | 0/8 | 0/8 | 0/8 | 0% | 0% | 0% | 0% | 156 to 158 °C | 
NCCCC(=O)O [GABA, γ-aminobutyric acid] |  |  |  |  |  |  |  |  |  | Percent of Specific Binding, GABAA (GABAA receptors): 82%
